# Source: PubChem BioAssay (NCI)
#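 Where inhibition never reached the appropriate level, the endpoint shown equals the highest concentration tested. Otherwise, values were interpolated linearly from a five-concentration, 48-hour dose response in 96-well plates. TGI marks complete inhibition of growth.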
# Assays:
# Assay in all cases: inhibition of tumour cell growth, NCI panel, 48 h
# NCI-H23 lung = tested on: NCI-H23 lung
# SK-MEL-5 melanoma = tested on: SK-MEL-5 melanoma
# MOLT-4 leukemia = tested on: MOLT-4 leukemia
# HCT-15 colon = tested on: HCT-15 colon
# SNB-75 CNS = tested on: SNB-75 CNS
# HCC-2998 colon = tested on: HCC-2998 colon
# T-47D breast = tested on: T-47D breast
# NCI-H460 lung = tested on: NCI-H460 lung
# HS 578T breast = tested on: HS 578T breast
# EKVX NSCLC = tested on: EKVX NSCLC
# MDA-MB-231 breast = tested on: MDA-MB-231 breast
# SR leukemia = tested on: SR leukemia
Structure (SMILES),TGI (NCI-H23 lung),TGI (SK-MEL-5 melanoma),TGI (MOLT-4 leukemia),TGI (HCT-15 colon),TGI (SNB-75 CNS),TGI (HCC-2998 colon),TGI (T-47D breast),TGI (NCI-H460 lung),TGI (HS 578T breast),TGI (EKVX NSCLC),TGI (MDA-MB-231 breast),TGI (SR leukemia)
Clc1ccc(C(OCn2ccnc2)c2nc3ccccc3[nH]2)c(Cl)c1 (configuration not stated),> 100 µM,35.2 µM,> 100 µM,> 100 µM,> 100 µM,> 100 µM,> 100 µM,> 100 µM,> 100 µM,> 100 µM,> 100 µM,
Cc1cccc(C)c1NC(=O)C(=O)CC(=O)c1sc(Nc2c(C)cccc2C)nc1C,> 100 µM,,> 100 µM,> 100 µM,> 100 µM,> 100 µM,> 100 µM,> 100 µM,> 100 µM,> 100 µM,> 100 µM,
Cc1cc(C=O)c2c(=O)c3c(O)ccc(/C=C/C(C)C)c3oc2c1,> 100 µM,> 100 µM,86.5 µM,99.6 µM,> 100 µM,> 100 µM,,> 100 µM,,,,78.2 µM
CCOc1ccc(OP2(=O)NC(=O)C=C(C)N2)cc1 (configuration not stated),> 100 µM,> 100 µM,> 100 µM,> 100 µM,> 100 µM,,,> 100 µM,,> 100 µM,,> 100 µM
COc1ccc(OC/C(N)=N/NC(=O)c2ccncc2)cc1,> 100 µM,,> 100 µM,> 100 µM,> 100 µM,> 100 µM,> 100 µM,> 100 µM,> 100 µM,> 100 µM,> 100 µM,
COC(=O)/C(=N\N)C(C(=O)C(=O)Nc1cc(Cl)ccc1Cl)c1nc2ccc([N+](=O)[O-])cc2[nH]c1=O (configuration not stated),> 100 µM,> 100 µM,> 100 µM,> 100 µM,> 100 µM,> 100 µM,> 100 µM,> 100 µM,> 100 µM,> 100 µM,> 100 µM,
Fc1ccc2c(c1)SC1=Nc3sc4cc(F)ccc4[n+]3CN12,47.3 µM,28.2 µM,,> 100 µM,36.8 µM,47.5 µM,55.4 µM,> 100 µM,38.4 µM,79 µM,44.3 µM,
O=C(NC1CCCCC1)c1n[nH]nc1Cl,> 100 µM,> 100 µM,> 100 µM,> 100 µM,,> 100 µM,> 100 µM,> 100 µM,> 100 µM,> 100 µM,> 100 µM,
CCOC(=O)C1(C)CCC(C(=O)OC)C1=O (configuration not stated),> 100 µM,> 100 µM,> 100 µM,43.1 µM,> 100 µM,> 100 µM,,28.6 µM,,> 100 µM,,51 µM
CN1S(=O)(=O)N(C)P12(N=P(CP(=NP13(N(C)S(=O)(=O)N1C)N(C)S(=O)(=O)N3C)(c1ccccc1)c1ccccc1)(c1ccccc1)c1ccccc1)N(C)S(=O)(=O)N2C,> 100 µM,> 100 µM,> 100 µM,> 100 µM,> 100 µM,> 100 µM,,> 100 µM,,> 100 µM,,
S=c1[nH]nc(Cn2c3ccc(Br)cc3c3nc4ccccc4nc32)o1,> 100 µM,> 100 µM,60.5 µM,> 100 µM,> 100 µM,> 100 µM,> 100 µM,> 100 µM,,> 100 µM,> 100 µM,> 100 µM
O=C(c1c(F)c(F)c(F)c(F)c1F)n1c(=S)n(C(=O)c2c(F)c(F)c(F)c(F)c2F)c2ccccc21,,> 100 µM,54.3 µM,> 100 µM,> 100 µM,> 100 µM,> 100 µM,> 100 µM,> 100 µM,,> 100 µM,> 100 µM
CCCCCCC1OC23OC1CCC2C(O)CCC3O (configuration not stated),> 100 µM,> 100 µM,> 100 µM,> 100 µM,> 100 µM,> 100 µM,,> 100 µM,> 100 µM,> 100 µM,> 100 µM,> 100 µM
NC(Cc1cc(I)c(Oc2ccc(O)c(I)c2)c(I)c1)C(=O)O (configuration not stated),> 100 µM,> 100 µM,,> 100 µM,> 100 µM,,> 100 µM,,> 100 µM,> 100 µM,> 100 µM,
N#CCC(=O)N/N=C\C(O)C(O)C(O)C(O)CO (configuration not stated),> 100 µM,> 100 µM,> 100 µM,> 100 µM,> 100 µM,> 100 µM,> 100 µM,> 100 µM,> 100 µM,,> 100 µM,> 100 µM
COC(=O)C1(CCCCl)CCCN1C(=O)OC(C)(C)C (configuration not stated),> 100 µM,> 100 µM,,> 100 µM,> 100 µM,> 100 µM,> 100 µM,> 100 µM,,> 100 µM,> 100 µM,> 100 µM
CC(C)C(=O)Cc1ccc2ccccc2n1,> 100 µM,> 100 µM,,> 100 µM,> 100 µM,> 100 µM,> 100 µM,> 100 µM,> 100 µM,> 100 µM,> 100 µM,
C#CCN(C(=O)C(F)(F)F)C(/C=C\C(=O)OC)(C(=O)OCC)C(=O)OCC,> 100 µM,> 100 µM,> 100 µM,> 100 µM,> 100 µM,> 100 µM,> 100 µM,> 100 µM,> 100 µM,> 100 µM,> 100 µM,
COc1ccc(OC)c(/C=C2/C(=O)N=C(NC(C)=O)N2C)c1,> 100 µM,> 100 µM,> 100 µM,> 100 µM,> 100 µM,> 100 µM,,> 100 µM,> 100 µM,> 100 µM,> 100 µM,
O=C(O)c1ccccc1/C=C1\Cc2cc3c(cc2C1=O)CCC3,58.8 µM,38.1 µM,46.5 µM,74.8 µM,25 µM,68.3 µM,45.6 µM,81.9 µM,,> 100 µM,51.2 µM,28.1 µM
COc1cc(Nc2nc3cc(C)ccc3nc2-c2ccccc2)cc(OC)c1OC,57 µM,35.1 µM,76.6 µM,48.7 µM,> 100 µM,44.2 µM,,40 µM,,> 100 µM,,69.9 µM
